# Source: PMC5784920, “Inhibition of α-glucosidase, α-amylase, and aldose reductase by potato polyphenolic compounds” (PLoS ONE, 2018)
# Assays:
# [1] = test system: T1, α-glucosidase; assay: p-nitrophenol release at […] nm, Lineweaver-Burk; format: biochemical; conditions: pH 6.5 phosphate; no inhibitor
# T1 construct: gene MAL12; introduction speaks of intestinal enzyme
# [2] = test system: O=C[C@H](O)CO; assay: purified protein; conditions: NADPH cofactor; no inhibitor; varied substrate taken as glyceraldehyde (D/L not told)
Compound,Km [1] [mM],Km [2] [mM]
O=[N+]([O-])c1ccc(O[C@H]2O[C@H](CO)[C@@H](O)[C@H](O)[C@H]2O)cc1 [PNPG],4.44,
aldose reductase (AR) (Homo sapiens),,3.03
